Measurements reported in patent US20100047371A1, “COMPOSITIONS AND METHODS FOR ORAL CANCER CHEMOPREVENTION USING BERRY PREPARATIONS AND EXTRACTS” (priority 2006, published 2010).

Tests used:
[1] = Human pharmacokinetic study: anthocyanins in saliva and peripheral blood after topical gel application; format: in vivo; details: for Anthocyanin concentration in saliva / Anthocyanin concentration in peripheral blood: 1.0 g 5% FBR Gel, pH 6.5 topical to floor of mouth; for Anthocyanin concentration in saliva: saliva collected 2-5 min after application; for Anthocyanin concentration in peripheral blood: blood drawn five minutes after application
Protocol: Anthocyanin content in sera, saliva, and tissue explants was evaluated by an HPLC-MS assay. The respective samples (sera, saliva or tissue homogenates) were dissolved in 90% solvent A (water plus 1% formic acid) and 10% solvent B (acetonitrile plus 1% formic acid) and then separated on a Symmetry C18 reversed-phase column and analyzed using a Waters 2695 gradient HPLC separation module equipped with a 996 photodiode-array (PDA) UV/visible absorbance detector (Milford, Mass.). The solvent system consisted of a step gradient from 90% A to 50% B over 15 minutes, and the absorption spectra were recorded from 200-800 nm with the inline PDA detector. Mass spectrometry was conducted on a quadrupole ion tunnel mass spectrometer equipped with a Z-spray ESI source. Explant protein levels were determined by the Lowry method, using bovine γ-globulin as the standard protein [Lippman et al., 1993].
Next, evaluation of anthocyanin uptake into human oral mucosa from FBR gels prepared as described in Example 1 was undertaken. For in-vivo studies, participation of human subjects was conducted in accordance with an IRB approved protocol. […] For the phamacokinetic analyses, nine consenting adult volunteers dried the anterior floor of their mouth, placed 1.0 g of 5% berry gel (pH 6.5), and massaged the gel in place for 30 seconds to facilitate uptake. Two minutes after gel application saliva was collected for the next three minutes. Peripheral blood was drawn five minutes after gel application. Following clotting, sera samples were collected, and both the sera and saliva samples were stored at −80° C. until LC-MS analysis as described below.
All nine participants had detectable anthocyanin levels of three anthocyanins (cyanidin 3-rutinoside, cyanidin 3-xylosylrutinoside, cyanidin 3-glucoside) in either their saliva or blood, and 4 donors had detectable levels of two anthocyanins (cyanidin 3-rutinoside and cyanidin 3-xylosylrutinoside) in their peripheral blood. Saliva from eight of the nine donors contained detectable levels of either two (cyanidin 3-rutinoside and cyanidin 3-xylosylrutinoside-4 donors) or three anthocyanins (4 donors).

[2] = test system: Human Oral Mucosa Explant Tissues; assay: Effect of final gel pH on anthocyanin uptake into human oral mucosa explant tissues; format: in vitro ADME; details: 10% w/w FBR gel
Protocol: Anthocyanin content in sera, saliva, and tissue explants was evaluated by an HPLC-MS assay. The respective samples (sera, saliva or tissue homogenates) were dissolved in 90% solvent A (water plus 1% formic acid) and 10% solvent B (acetonitrile plus 1% formic acid) and then separated on a Symmetry C18 reversed-phase column and analyzed using a Waters 2695 gradient HPLC separation module equipped with a 996 photodiode-array (PDA) UV/visible absorbance detector (Milford, Mass.). The solvent system consisted of a step gradient from 90% A to 50% B over 15 minutes, and the absorption spectra were recorded from 200-800 nm with the inline PDA detector. Mass spectrometry was conducted on a quadrupole ion tunnel mass spectrometer equipped with a Z-spray ESI source. Explant protein levels were determined by the Lowry method, using bovine γ-globulin as the standard protein [Lippman et al., 1993]. Tissue explants, specifically human oral mucosal explants, were used to determine the in vitro effects of FBR content and pH on anthocyanin uptake. Human oral tissues for the tissue explant studies were obtained from consenting volunteers who were undergoing elective oral surgery procedures. To confirm “no pathologic diagnosis”, a portion of each of these tissues was submitted for light microscopic evaluation. […] Tissues for explant experiments were immediately placed in an artificial saliva transport medium, which also served as the incubation medium for the gel absorption studies. The composition of the artificial saliva used for tissue transport and incubation was (final concentrations): sodium carboxymethylcellulose (0.5%), sorbitol (165 mM), NaCl (14 mM), KCl (16 mM), calcium chloride dehydrate (1.0 mM), MgCl2 (0.63 mM), Trizma hydrochloride (2.0 mM). Tissues from eight donors were used for preliminary studies to compare the penetration of anthocyanins from the 5% berry gel and the 10% FBR gel, both at a final pH of 6.5. In order to account for heterogeneity among human donors, tissue samples were hemisected. One tissue portion treated with 5% and the other with 10% FBR gels. One gram of gel (containing either 5% or 10% w/w FBR) was placed on the epithelial surface of the explant, followed by gently rubbing of the site for 30 seconds to facilitate uptake. Explants were then placed into artificial saliva, incubated for 30 minutes (37° C., 5% CO2), and then frozen at −80° C. until HPLC-mass spectroscopy analyses as previously reported [Rodrigo et al., in press]. Tissue preparation for HPLC analyses consisted of homogenization of the entire oral mucosal specimen, removal of an aliquot for sample protein level determination, followed by the addition of collagenase type II (0.1 mg/mL, GIBCO, Grand Island, N.Y.) and 1% formic acid. Samples were then placed on a Sep Pack (Millipore, Billerica, Mass.), eluted with methanol, and dried under argon gas. Additional oral mucosal explant studies were conducted to compare the effect of FBR gel pH on absorption into oral mucosal explants. Tissues from eleven donors were used for these studies, and handling was as described above with the exception that all gels contained 10% w/w FBR and were formulated at a final pH of 3.5 or 6.5. […] Large differences (up to 15-fold) in detectable anthocyanin levels were found in the gel treated donor tissues; findings that likely reflect the extensive heterogeneity within human tissues that affects tissue penetrative abilities.

[3] = average of eleven explant samples

CC1OC(OCC2OC(Oc3cc4c(O)cc(O)cc4[o+]c3-c3ccc(O)c(O)c3)C(OC3OCC(O)C(O)C3O)C(O)C2O)C(O)C(O)C1O (stereo not drawn) [cyanidin 3-xylosylrutinoside]
number of donors with detectable levels in peripheral blood ([1]; of nine participants, 5% berry gel (pH 6.5), five minutes after application): 4 donors
Anthocyanin concentration in saliva ([1]; patient 101): 2.0 pmol/mL
Anthocyanin concentration in saliva ([1]; patient 102): 0.5 pmol/mL
Anthocyanin concentration in peripheral blood ([1]; patient 103): 0.6 pmol/mL
Anthocyanin concentration in saliva ([1]; patient 104): 1.5 pmol/mL
Anthocyanin concentration in peripheral blood ([1]; patient 105): 1.1 pmol/mL
Anthocyanin concentration in saliva ([1]; patient 105): 2.3 pmol/mL
Anthocyanin concentration in peripheral blood ([1]; patient 106): 0.8 pmol/mL
Anthocyanin concentration in saliva ([1]; patient 106): 1.9 pmol/mL
Anthocyanin concentration in peripheral blood ([1]; patient 107): 1.3 pmol/mL
Anthocyanin concentration in saliva ([1]; patient 107): 1.7 pmol/mL
Anthocyanin concentration in saliva ([1]; patient 108): 1.0 pmol/mL
Anthocyanin concentration in saliva ([1]; patient 109): 1.2 pmol/mL
Anthocyanin uptake, Gel pH 3.5, Avg. ± SEM [2, 3]: 5.4 pmol per mg tissue
Anthocyanin uptake, Gel pH 6.5, Avg. ± SEM [2, 3]: 17.4 pmol per mg tissue
% change 3.5 to 6.5, Avg. ± SEM ([2]; average of explant samples): 140.6%
% change 3.5 to 6.5 ([2]; explant sample 001): 522.5%
Anthocyanin uptake, Gel pH 3.5 ([2]; explant sample 001): 14.2 pmol per mg tissue
Anthocyanin uptake, Gel pH 6.5 ([2]; explant sample 001): 88.1 pmol per mg tissue
% change 3.5 to 6.5 ([2]; explant sample 002): 747.1%
Anthocyanin uptake, Gel pH 3.5 ([2]; explant sample 002): 1.2 pmol per mg tissue
Anthocyanin uptake, Gel pH 6.5 ([2]; explant sample 002): 10.3 pmol per mg tissue
% change 3.5 to 6.5 ([2]; explant sample 003): 12.1%
Anthocyanin uptake, Gel pH 3.5 ([2]; explant sample 003): 5.7 pmol per mg tissue
Anthocyanin uptake, Gel pH 6.5 ([2]; explant sample 003): 6.4 pmol per mg tissue
% change 3.5 to 6.5 ([2]; explant sample 004): −65.1%
Anthocyanin uptake, Gel pH 3.5 ([2]; explant sample 004): 3.6 pmol per mg tissue
Anthocyanin uptake, Gel pH 6.5 ([2]; explant sample 004): 1.3 pmol per mg tissue
% change 3.5 to 6.5 ([2]; explant sample 005): −45.9%
Anthocyanin uptake, Gel pH 3.5 ([2]; explant sample 005): 0.9 pmol per mg tissue
Anthocyanin uptake, Gel pH 6.5 ([2]; explant sample 005): 0.5 pmol per mg tissue
% change 3.5 to 6.5 ([2]; explant sample 006): 258.5%
Anthocyanin uptake, Gel pH 3.5 ([2]; explant sample 006): 9.9 pmol per mg tissue
Anthocyanin uptake, Gel pH 6.5 ([2]; explant sample 006): 35.5 pmol per mg tissue
% change 3.5 to 6.5 ([2]; explant sample 007): −9.4%
Anthocyanin uptake, Gel pH 3.5 ([2]; explant sample 007): 1.1 pmol per mg tissue
Anthocyanin uptake, Gel pH 6.5 ([2]; explant sample 007): 1.0 pmol per mg tissue
Anthocyanin uptake, Gel pH 3.5 ([2]; explant sample 008): 0.0 pmol per mg tissue
Anthocyanin uptake, Gel pH 6.5 ([2]; explant sample 008): 6.3 pmol per mg tissue
% change 3.5 to 6.5 ([2]; explant sample 009): 318.4%
Anthocyanin uptake, Gel pH 3.5 ([2]; explant sample 009): 9.9 pmol per mg tissue
Anthocyanin uptake, Gel pH 6.5 ([2]; explant sample 009): 41.3 pmol per mg tissue
% change 3.5 to 6.5 ([2]; explant sample 010): −91.9%
Anthocyanin uptake, Gel pH 3.5 ([2]; explant sample 010): 6.7 pmol per mg tissue
Anthocyanin uptake, Gel pH 6.5 ([2]; explant sample 010): 0.5 pmol per mg tissue
% change 3.5 to 6.5 ([2]; explant sample 011): −100%
Anthocyanin uptake, Gel pH 3.5 ([2]; explant sample 011): 6.0 pmol per mg tissue
Anthocyanin uptake, Gel pH 6.5 ([2]; explant sample 011): 0.00 pmol per mg tissue
